The source of these data is US12624018B1, “Inhibitors of RIPK2 and medical uses thereof” (Odyssey Therapeutics, Inc., priority 2022, dated 2026).

The target of the test is T1, RIPK2 enzyme (Homo sapiens, UniProt O43353).
T1 construct: purchased Carna 09-128
Kind of test: RIPK2 inhibition (ADP-Glo Kinase Assay). As to conditions: RIPK2 5 nM, ATP 150 μM, MBP substrate, read-out: RIPK2 IC50. The format is biochemical. The protocol: RIPK2 inhibition was measured as follows:
The V9102 ADP-Glo Kinase Assay (including ultrapure ATP, 10 mM) was purchased from Promega. Native swine MBP was used as the substrate for the reaction and was purchased from SignalChem Biotech (catalogue number M42-51N). Assay buffer used for the assay consisted of the following components: MgCl2 (final concentration of 10 mM), Brij-35 (0.01%), DTT (final concentration of 2 mM), BSA (0.05%), EGTA (final concentration of 1 mM), and HEPE (pH 7.5 at final concentration of 50 mM).
Method: In a 384 well plate, 10 nL of test compound was dispensed using Echo550 and mixed with RIPK2 enzyme (final concentration of 5 nM) in assay buffer for 30 minutes at room temperature. […] Then ADP-Glo reagent was added and incubated for 60 min at room temperature. Last, Kinase Detection Reagent was added to the mixture and incubated for 60 min. The resulting luminescent signal was measured with an Envision reader to determine the amount of ADP produced. All plates contained vehicle controls (10 nL DMSO only) as a reference for the high control (0% kinase inhibition), and wells with no RIPK2 enzyme as reference for low control (100% kinase inhibition). Data were analyzed to determine the percent inhibition of ADP production in the presence of test compound using both low and high controls.

T1 sequence (O43353 1-299 limits assumed): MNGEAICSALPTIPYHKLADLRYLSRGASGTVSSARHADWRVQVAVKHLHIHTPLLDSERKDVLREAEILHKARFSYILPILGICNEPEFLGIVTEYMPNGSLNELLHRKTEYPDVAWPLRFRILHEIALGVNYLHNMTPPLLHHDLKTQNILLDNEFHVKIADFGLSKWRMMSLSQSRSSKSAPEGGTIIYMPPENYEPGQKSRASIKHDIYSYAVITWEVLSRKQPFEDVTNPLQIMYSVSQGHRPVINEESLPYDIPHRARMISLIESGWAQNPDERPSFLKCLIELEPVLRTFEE

In general, IC50 refers to the concentration needed to halve the response being measured. Turning to `Cc1cc(CC(=O)Nc2cnn(C(C)(C)C)c2)ccc1Oc1ccnc2ccc(OC3CCNCC3C)cc12` (racemic) [Compound 187], the half-maximal inhibitory concentration (IC50) was below 2.5 nM.
The value for `Cc1cc(CC(=O)Nc2cnn(C(C)(C)C)c2)ccc1Oc1ccnc2ccc(OC3CCNCC3C)cc12` (racemic) [Compound 188, N-(1-(tert-butyl)-1H-pyrazol-4-yl)-2-(3-methyl-4-((6-((-3-methyl-piperidin-4-yl)oxy)quinolin-4-yl)oxy)phenyl) acetamide] was below 2.5 nM.
Then `Cc1cc(CC(=O)Nc2cnn(C(C)(C)C)c2)ccc1Oc1ccnc2ccc(OC3CCNCC3O)cc12` (racemic) [Compound 189, N-(1-(tert-butyl)-1H-pyrazol-4-yl)-2-(4-((6-((-3-hydroxy-piperidin-4-yl)oxy)quinolin-4-yl)oxy)-3-methylphenyl) acetamide], with below 2.5 nM; and `Cc1cc(CC(=O)Nc2cnn(C(C)(C)C)c2)ccc1Oc1ccnc2ccc(OC3CCNC(C)C3)cc12` (racemic) [Compound 220, N-(1-(tert-butyl)-1H-pyrazol-4-yl)-2-(3-methyl-4-((6-((-2-methyl-piperidin-4-yl)oxy)quinolin-4-yl)oxy)phenyl) acetamide], with below 2.5 nM.
The value for `Cc1cc(CC(=O)Nc2cnn(C(C)(C)C)c2)ccc1Oc1ccnc2ccc(OC3CCNC(C)C3)cc12` (racemic) [Compound 221, N-(1-(tert-butyl)-1H-pyrazol-4-yl)-2-(3-methyl-4-((6-((-2-methyl-piperidin-4-yl)oxy)quinolin-4-yl)oxy)phenyl) acetamide] was below 2.5 nM; that for `Cc1cc(CC(=O)Nc2cnn(C(C)(C)C)c2)ccc1Oc1ccnc2ccc(OC3CCNCC3F)cc12` (racemic) [Compound 237, N-(1-(tert-butyl)-1H-pyrazol-4-yl)-2-(4-((6-((-3-fluoro-piperidin-4-yl)oxy)quinolin-4-yl)oxy)-3-methylphenyl) acetamide] was below 2.5 nM.
`Cc1cc(CC(=O)Nc2cnn(C(C)(C)C)c2)ccc1Oc1ccnc2ccc(OC3CCNCC3F)cc12` (racemic) [Compound 238, N-(1-(tert-butyl)-1H-pyrazol-4-yl)-2-(4-((6-((-3-fluoro-piperidin-4-yl)oxy)quinolin-4-yl)oxy)-3-methylphenyl) acetamide]: the half-inhibitory concentration (IC50) was below 2.5 nM.
With `COc1ccc2ncnc(Oc3cnc(C(C)C(=O)Nc4cnn(C(C)(C)C)c4)c(F)c3)c2c1` (single isomer, unassigned) [Compound 11, N-(1-(tert-butyl)-1H-pyrazol-4-yl)-2-(3-fluoro-5-((6-methoxyquinazolin-4-yl)oxy)pyridin-2-yl)propanamide], the IC50 stood at 70.7 nM.
With `CC(C)(C)n1cc(NC(=O)Cc2ccc(Oc3ccnc4ccc(S(C)(=N)=O)cc34)cc2F)cn1` (single isomer, unassigned) [Compound 69, N-(1-(tert-butyl)-1H-pyrazol-4-yl)-2-(2-fluoro-4-((6-(S-methylsulfonimidoyl)quinolin-4-yl)oxy)phenyl)acetamide], the IC50 stood at 6.9 nM.
Then `CC(C)(C)n1cc(NC(=O)Cc2ccc(Oc3ccnc4ccc(S(C)(=N)=O)cc34)cc2F)cn1` (single isomer, unassigned) [Compound 70, N-(1-(tert-butyl)-1H-pyrazol-4-yl)-2-(2-fluoro-4-((6-(S-methylsulfonimidoyl)quinolin-4-yl)oxy)phenyl)acetamide], with 5.1 nM; and `CN(C)C1CCN(c2ccc3nccc(Oc4cnc(CC(=O)Nc5cnn(C(C)(C)C)c5)c(F)c4)c3c2)C1` (single isomer, unassigned) [Compound 140, N-(1-(tert-butyl)-1H-pyrazol-4-yl)-2-(5-((6-(3-(dimethylamino)pyrrolidin-1-yl)quinolin-4-yl)oxy)-3-fluoropyridin-2-yl)acetamide], with 7.4 nM; and `CN(C)C1CCN(c2ccc3nccc(Oc4cnc(CC(=O)Nc5cnn(C(C)(C)C)c5)c(F)c4)c3c2)C1` (single isomer, unassigned) [Compound 141, N-(1-(tert-butyl)-1H-pyrazol-4-yl)-2-(5-((6-(3-(dimethylamino)pyrrolidin-1-yl)quinolin-4-yl)oxy)-3-fluoropyridin-2-yl)acetamide], with 10.3 nM.
With `Cc1cc(CC(=O)Nc2cnn(C(C)(C)C)c2)ccc1Oc1ccnc2ccc(OCC3CCCN3)cc12` (single isomer, unassigned) [Compound 190, N-(1-(tert-butyl)-1H-pyrazol-4-yl)-2-(3-methyl-4-((6-(pyrrolidin-2-ylmethoxy)quinolin-4-yl)oxy)phenyl) acetamide], the IC50 is below 2.5 nM.
The value for `Cc1cc(CC(=O)Nc2cnn(C(C)(C)C)c2)ccc1Oc1ccnc2ccc(OCC3CCCN3)cc12` (single isomer, unassigned) [Compound 191, N-(1-(tert-butyl)-1H-pyrazol-4-yl)-2-(3-methyl-4-((6-(pyrrolidin-2-ylmethoxy)quinolin-4-yl)oxy)phenyl) acetamide] was below 2.5 nM; that for `CC(C)(C)n1cc(NC(=O)Cc2ccc(Oc3ccnc4ccc(S(C)(=N)=O)cc34)c(Cl)c2)cn1` (single isomer, unassigned) [Compound 196, N-(1-(tert-butyl)-1H-pyrazol-4-yl)-2-(3-chloro-4-((6-(S-methylsulfonimidoyl)quinolin-4-yl)oxy)phenyl)acetamide] was below 2.5 nM; that for `Cc1cc(CC(=O)Nc2cnn(C(C)(C)C)c2)ccc1Oc1ccnc2ccc(S(=O)(=O)C3CCOC3)cc12` (single isomer, unassigned) [Compound 199, N-(1-(tert-butyl)-1H-pyrazol-4-yl)-2-(3-methyl-4-((6-((tetrahydrofuran-3-yl)sulfonyl)quinolin-4-yl)oxy)phenyl)acetamide] was below 2.5 nM.
Then `Cc1cc(CC(=O)Nc2cnn(C(C)(C)C)c2)ccc1Oc1ccnc2ccc(S(=O)(=O)C3CCOC3)cc12` (single isomer, unassigned) [Compound 200, N-(1-(tert-butyl)-1H-pyrazol-4-yl)-2-(3-methyl-4-((6-((tetrahydrofuran-3-yl)sulfonyl)quinolin-4-yl)oxy)phenyl)acetamide], with below 2.5 nM.
Then `Cc1cc(CC(=O)Nc2cnn(C(C)(C)C)c2)ccc1Oc1ccnc2ccc(S(=O)(=O)C3CCNC3)cc12` (single isomer, unassigned) [Compound 201, N-(1-(tert-butyl)-1H-pyrazol-4-yl)-2-(3-methyl-4-((6-(pyrrolidin-3-ylsulfonyl)quinolin-4-yl)oxy)phenyl)acetamide], with below 2.5 nM.
Consider `Cc1cc(CC(=O)Nc2cnn(C(C)(C)C)c2)ccc1Oc1ccnc2ccc(S(=O)(=O)C3CCNC3)cc12` (single isomer, unassigned) [Compound 202, N-(1-(tert-butyl)-1H-pyrazol-4-yl)-2-(3-methyl-4-((6-(pyrrolidin-3-ylsulfonyl)quinolin-4-yl)oxy)phenyl)acetamde], for which the IC50 is below 2.5 nM.
The value for `Cc1cc(CC(=O)Nc2cnn(C(C)(C)C)c2)ccc1Oc1ccnc2ccc(OCC(C)O)cc12` (single isomer, unassigned) [Compound 224, N-(1-(tert-butyl)-1H-pyrazol-4-yl)-2-(4-((6-(2-hydroxy-propoxy)quinolin-4-yl)oxy)-3-methylphenyl) acetamide] was below 2.5 nM.
With `Cc1cc(CC(=O)Nc2cnn(C(C)(C)C)c2)ccc1Oc1ccnc2ccc(OCC(C)O)cc12` (single isomer, unassigned) [Compound 225, N-(1-(tert-butyl)-1H-pyrazol-4-yl)-2-(4-((6-(2-hydroxy-propoxy)quinolin-4-yl)oxy)-3-methylphenyl) acetamide], the IC50 is below 2.5 nM.
Then `Cc1cc(CC(=O)Nc2cnn(C(C)(C)C)c2)ccc1Oc1ccnc2ccc(S(=O)(=O)CC3CCOC3)cc12` (single isomer, unassigned) [Compound 241, N-(1-(tert-butyl)-1H-pyrazol-4-yl)-2-(3-methyl-4-((6-(((tetrahydrofuran-3-yl)methyl)sulfonyl)quinolin-4-yl)oxy)phenyl)acetamide], with below 2.5 nM.
Then `Cc1cc(CC(=O)Nc2cnn(C(C)(C)C)c2)ccc1Oc1ccnc2ccc(S(=O)(=O)CC3CCOC3)cc12` (single isomer, unassigned) [Compound 242, N-(1-(tert-butyl)-1H-pyrazol-4-yl)-2-(3-methyl-4-((6-(((tetrahydrofuran-3-yl)methyl)sulfonyl)quinolin-4-yl)oxy)phenyl)acetamide], with below 2.5 nM; and `Cc1c(Oc2ccnc3ccc(S(=O)(=O)C4CCOC4)cc23)ccc(CC(=O)Nc2cnn(C(C)(C)C)c2)c1F` (single isomer, unassigned) [Compound 250, N-(1-(tert-butyl)-1H-pyrazol-4-yl)-2-(2-fluoro-3-methyl-4-((6-((tetrahydrofuran-3-yl)sulfonyl)quinolin-4-yl)oxy)phenyl)acetamide], with below 2.5 nM.
Regarding `Cc1c(Oc2ccnc3ccc(S(=O)(=O)C4CCOC4)cc23)ccc(CC(=O)Nc2cnn(C(C)(C)C)c2)c1F` (single isomer, unassigned) [Compound 251, N-(1-(tert-butyl)-1H-pyrazol-4-yl)-2-(2-fluoro-3-methyl-4-((6-((tetrahydrofuran-3-yl)sulfonyl)quinolin-4-yl)oxy)phenyl)acetamide], the 50% inhibitory concentration (IC50) is below 2.5 nM.
